The record followed here is patent publication US20030157155A1, “Compositions for use as penetration promoters in transdermal formulations for highly lipophilic active ingredients” (priority 2000, published 2003).

A short description of data set [1]: octanol/water partition coefficient.

Structures are written as SMILES.

A word on the logP: it is the decadic logarithm of the partition coefficient of the neutral form, usually between octanol and water. On to `CN(CCCCC[C@@H]1Cc2cc(O)ccc2[C@@H]2[C@@H]1[C@@H]1CC[C@H](O)[C@@]1(C)C[C@@H]2F)CCCSCCCC(F)(F)C(F)(F)F` [antiestrogen 1, 11β-fluoro-7α-{5-[N-methyl-N-3-(4,4,5,5,5-pentafluoropentylthio)propylamino]pentyl}estra-1,3,5(10)-triene-3,17β-diol], for which, in the data set “physchem”, the logP turned out to be 5.8. As to `CN(CCCCCCC(F)(F)C(F)(F)C(F)(F)C(F)(F)F)CCCCC[C@@H]1Cc2cc(O)ccc2[C@@H]2[C@@H]1[C@@H]1CC[C@H](O)[C@@]1(C)C[C@@H]2F` [antiestrogen 2, 11β-fluoro-7α-{5-[methyl-(7,7,8,8,9,9,10,10,10-nonafluorodecyl)amino]pentyl}estra-1,3,5(10)-triene-3,17β-diol], the logP in data set [1] stood at 7.8.
